Data taken from US12358896B2, “LRRK2 inhibitors and methods of making and using thereof” (DENALI THERAPEUTICS INC., priority 2019, dated 2025).

What was measured:
[1] = Metabolic stability in human liver microsomes (Biological Example 2); format: in vitro ADME; details: hepatic clearance (CLhep) scaled from human liver microsomes, 1 μM, well-stirred model
Protocol: Metabolic stability of select compounds was evaluated in human liver microsomes (from Corning or XenoTech, LLC) using a 96-well plate assay format. Compounds were incubated at 37° C. at 1 μM final concentration in the microsomal matrix (0.5 mg/mL total protein) in the presence or absence of NADPH cofactor. An NADPH regenerating system, comprised of NADP, MgCl2, isocitric acid, and isocitrate dehydrogenase, was used in the assay. Enzymatic reactions were conducted for 0, 5, 10, 20, 30, or 60 min before termination by addition of acetonitrile containing tolbutamide and labetalol internal standards (100 ng/mL). After shaking for 10 min, plates were subjected to centrifugation (4000 rpm at 4° C.) for 20 min and supernatants mixed 1:3 with HPLC grade water. Samples were analyzed by LC-MS/MS using appropriate MRM transitions for each analyte and internal standard (IS). Analyte/IS peak area ratios were used to determine percent compound remaining at each time point. Intrinsic clearance (Clint; expressed as mL·min^−1·mg^−1) was calculated from the first order elimination constant (k, min^−1) of test article decay and the volume of the incubation. These values were scaled to intrinsic organ clearance (Clint) using human specific scaling factors (48.8 mg microsomal protein per g liver; 25.7 g liver per kg body weight). Organ Clint was subsequently converted to hepatic clearance, HLM, (CLhep, mL·min-1·kg-1) using the well-stirred model of hepatic elimination, where Qh is human hepatic blood flow (20.7 mL·min-1·kg-1).
CLhep is the projected human clearance in the liver based on the above in vitro assay. A lower value is indicative of less compound being removed by the liver.

LRRK2 G2019S enzyme = LRRK2 G2019S enzyme (Homo sapiens, UniProt Q5S007, G2019S); assay: LRRK2 G2019S TR-FRET biochemical assay (Biological Example 1); details: 134 μM ATP, 5 nM LRRK2, LRRKtide substrate
Sequence of LRRK2 G2019S enzyme (Q5S007 whole entry G2019S): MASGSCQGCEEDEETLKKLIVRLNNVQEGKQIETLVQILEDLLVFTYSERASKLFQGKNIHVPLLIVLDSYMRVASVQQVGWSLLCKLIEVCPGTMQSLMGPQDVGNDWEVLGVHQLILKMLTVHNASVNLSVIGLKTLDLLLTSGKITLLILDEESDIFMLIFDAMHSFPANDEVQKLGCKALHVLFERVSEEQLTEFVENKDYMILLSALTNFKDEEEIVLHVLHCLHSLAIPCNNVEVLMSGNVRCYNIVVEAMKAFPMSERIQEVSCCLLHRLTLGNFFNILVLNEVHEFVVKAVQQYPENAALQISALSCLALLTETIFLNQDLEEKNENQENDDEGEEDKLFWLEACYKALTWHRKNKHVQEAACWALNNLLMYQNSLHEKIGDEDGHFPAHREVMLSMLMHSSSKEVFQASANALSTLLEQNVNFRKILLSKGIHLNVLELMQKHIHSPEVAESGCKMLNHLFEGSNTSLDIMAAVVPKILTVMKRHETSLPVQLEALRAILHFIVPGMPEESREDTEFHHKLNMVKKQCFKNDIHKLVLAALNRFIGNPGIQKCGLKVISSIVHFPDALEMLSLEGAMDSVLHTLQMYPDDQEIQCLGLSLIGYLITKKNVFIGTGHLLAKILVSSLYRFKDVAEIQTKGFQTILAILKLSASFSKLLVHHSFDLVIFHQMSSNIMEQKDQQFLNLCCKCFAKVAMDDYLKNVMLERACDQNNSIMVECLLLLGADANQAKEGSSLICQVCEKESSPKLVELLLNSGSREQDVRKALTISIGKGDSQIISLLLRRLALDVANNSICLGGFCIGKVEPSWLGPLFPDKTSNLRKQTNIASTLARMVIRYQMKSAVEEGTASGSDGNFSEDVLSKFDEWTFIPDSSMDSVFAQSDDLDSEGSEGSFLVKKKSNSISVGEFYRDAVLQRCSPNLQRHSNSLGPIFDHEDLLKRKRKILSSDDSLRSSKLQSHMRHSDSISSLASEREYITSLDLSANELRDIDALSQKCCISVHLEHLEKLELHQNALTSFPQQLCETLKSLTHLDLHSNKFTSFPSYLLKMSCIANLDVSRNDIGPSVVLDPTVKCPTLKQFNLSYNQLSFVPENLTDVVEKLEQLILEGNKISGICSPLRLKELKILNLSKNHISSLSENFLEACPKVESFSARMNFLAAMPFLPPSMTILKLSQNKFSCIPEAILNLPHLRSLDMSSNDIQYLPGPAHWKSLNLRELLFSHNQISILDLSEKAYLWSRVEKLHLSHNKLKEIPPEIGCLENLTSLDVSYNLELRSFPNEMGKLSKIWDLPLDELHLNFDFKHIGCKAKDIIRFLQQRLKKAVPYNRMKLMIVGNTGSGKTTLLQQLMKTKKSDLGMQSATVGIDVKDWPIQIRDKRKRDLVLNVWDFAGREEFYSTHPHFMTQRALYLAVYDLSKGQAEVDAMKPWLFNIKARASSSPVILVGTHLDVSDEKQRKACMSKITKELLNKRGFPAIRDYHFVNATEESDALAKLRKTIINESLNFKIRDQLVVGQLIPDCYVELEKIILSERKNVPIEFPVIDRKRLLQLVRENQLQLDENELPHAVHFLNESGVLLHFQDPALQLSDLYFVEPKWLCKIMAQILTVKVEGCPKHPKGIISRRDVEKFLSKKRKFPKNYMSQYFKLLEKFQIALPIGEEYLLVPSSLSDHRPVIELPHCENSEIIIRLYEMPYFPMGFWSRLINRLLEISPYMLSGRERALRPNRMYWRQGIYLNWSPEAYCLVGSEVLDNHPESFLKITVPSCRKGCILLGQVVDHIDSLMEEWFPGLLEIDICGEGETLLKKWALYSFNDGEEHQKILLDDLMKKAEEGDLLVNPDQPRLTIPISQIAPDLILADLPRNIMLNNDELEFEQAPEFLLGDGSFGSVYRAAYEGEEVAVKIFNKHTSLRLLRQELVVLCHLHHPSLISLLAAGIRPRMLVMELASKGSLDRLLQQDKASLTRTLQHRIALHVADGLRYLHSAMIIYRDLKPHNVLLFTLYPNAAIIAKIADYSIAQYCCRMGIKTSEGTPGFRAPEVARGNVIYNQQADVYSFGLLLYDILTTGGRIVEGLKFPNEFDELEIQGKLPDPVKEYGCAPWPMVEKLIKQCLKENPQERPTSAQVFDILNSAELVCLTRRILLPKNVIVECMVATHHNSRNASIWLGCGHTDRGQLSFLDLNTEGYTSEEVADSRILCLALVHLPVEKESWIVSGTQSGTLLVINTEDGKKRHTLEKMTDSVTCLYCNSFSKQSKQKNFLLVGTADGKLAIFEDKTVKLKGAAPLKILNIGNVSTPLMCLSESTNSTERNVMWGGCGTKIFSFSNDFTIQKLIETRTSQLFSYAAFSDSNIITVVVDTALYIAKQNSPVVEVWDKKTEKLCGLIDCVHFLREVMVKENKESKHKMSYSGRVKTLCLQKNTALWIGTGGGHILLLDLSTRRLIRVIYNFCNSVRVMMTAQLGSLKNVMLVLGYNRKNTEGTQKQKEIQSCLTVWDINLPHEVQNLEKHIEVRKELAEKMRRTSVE
Protocol: • LRRK2 G2019S enzyme • Substrate (LRRKtide) • ATP • TR-FRET dilution buffer • pLRRKtide antibody • 384-well assay plate • DMSO Enzyme Reaction Conditions • 50 mM Tris pH 7.5, 10 mM MgCl2, 1 mM EGTA, 0.01% Brij-35, 2 mM DTT • 5 nM LRRK2 • 134 μM ATP • 60 minute reaction time • 23° C. reaction temperature • 10 μL total reaction volume Detection Reaction Conditions • 1×TR-FRET dilution buffer • 10 mM EDTA • 2 nM antibody • 23° C. reaction temperature • 10 μL total reaction volume
Compounds are prepared by initially diluting to 1 mM with DMSO. 35 μL of reference compound solution, 35 μL of test compound solution, and 35 μL HPE are successively added to the source plate (384-well assay plate, Labcyte). The plates are centrifuged at 2500 rpm for 1 minute and sealed in foil. POD is used to perform a 3.162 fold serial dilution and 100 nL of reference compound solution, test compound solution, HPE and ZPE are transferred to assay plates. The assay plate is centrifuged at 2500 rpm for 1 minute, and sealed with foil.
To perform the enzyme reaction, 5 μL of LRRKtide substrate and kinase mixture in assay buffer is added to all wells of the assay plate. The plate is centrifuged to concentrate the mixture at the bottom of the wells. The assay plate is incubated at 23° C. for 20 minutes. Following incubation, 5 μL of 2×ATP in assay buffer is added to each well, and plates are centrifuged to concentrate the mixture at the bottom of the wells. The plate is incubated at 23° C. for 60 minutes.
To perform the detection of the reaction, EDTA completely mixed in TR-FRET dilution buffer is added to antibody reagent. 10 μL of detection reagent is added to all wells of each well of the assay plate and the plate is centrifuged to concentrate the mixture at the bottom of the wells. The plate is then incubated at 23° C. for 60 minutes. Plates are read on Perkin Elmer Envision 2104 instrument in TR-FRET mode using a 340 nm excitation filter, 520 nm fluorescence emission filter, and 490 or 495 nm terbium emission filter.

[2] = biological target: T1, FLAG-tagged human LRRK2 with G2019S mutation (Homo sapiens, UniProt Q5S007, G2019S); assay: Inhibition of pSer935 in HEK293 cells with expressed G2019S LRRK2 (Biological Example 4); format: cell-based; details: transfected 293T cells, 90 minutes compound treatment, MSD readout; read-out: HEK293T LRRK2 G2019S pS935
T1 construct: expressed in transfected cells; host or cells: HEK293 / 293T cells, transient transfection with pCMV-FLAG-G2019S
T1 sequence (Q5S007 whole entry G2019S): as above
Protocol: In this assay, inhibition of phosphorylation of LRRK2 at residue serine 935 (pS935) by test compound was determined in HEK293 cells.
HEK293 cells were first transiently transfected with a plasmid harboring FLAG-tagged human LRRK2 cDNA with G2019S mutation (p.G2019S) under the control of CMV promoter for robust overexpression. The levels of phosphorylated Ser935 in G2019S expressing cells with or without compound treatment were measured by MSD using an anti-FLAG capture antibody and a phosho-specific anti-LRRK2 pS935 monoclonal detection antibody. The IC50 was determined by fitting a 10-point dose response data in duplicate with four parameter non-linear regression curve.
(Day 1) 293T cell seeding: 293T cells were seeded (1.4×10^6/well) into each well of a 6-well plate. After two days in culture, the cell number can grow into 5×10^6/well, so N+1 wells were seeded (enough for N 96 well assay plates).
(Day 2) 293T cell transfection: 5 μL of pCMV-FLAG-G2019S or pCMV-FLAG-WT LRRK2 (0.5 μg/μL) was added into 145 μL of DMEM medium, and mixed thoroughly by pipette up and down several times. 15 μL of SuperFect Transfection Reagent was added into samples, mixed thoroughly by pipetting up and down several times, and allowed to equilibrate at room temperature for 5-10 minutes. 0.5 mL of pre-warmed cell culture medium was added into samples, and mixed thoroughly by pipetting up and down several times. 650 μL of the mixture was added dropwise into each well of the 6 well plate, the plate was swirled to mix thoroughly, and incubated in a 37° C. incubator with a humidified atmosphere of 5% CO2 for 20-24 hours.
(Day 3) 293T cells seed into 96 well plates: Cells were harvested and resuspended in cell culture medium at 0.96×10^6 cells/mL density. 50 μL/well cells were plated onto 96-well cell culture plate (48,000 cells/well), and the plates were incubated in a 37° C. incubator with a humidified atmosphere of 5% CO2 for 20-24 hours.
(Day 4) Inhibitor Treatment and Cell Lysis: The compound destination plates were thawed at room temperature and centrifuged at 2000 rpm. 55 μL cell culture medium was added into compound destination plate, and the plate was warmed at 37° C.
50 μL of cell culture medium containing compounds was transferred into cell culture plate. Plates were incubated in a 37° C. incubator with a humidified atmosphere of 5% CO2 for 90 minutes, after which all of compound-containing medium was completely aspirated manually with 300 μL pipette. 100 μL/well of Lysis Buffer was added and the plates sealed, shaken at 4° C. for 30 minutes, and stored at −20° C. until usage.
(Day 5) MSD procedure: 2 μg/25 μL/well of FLAG antibody diluted in PBS was added into the MSD plate, incubated for two hours at room temperature or overnight at 4° C. (in Day 4). 50 μL (3.9 μg/μL) of FLAG antibody plus 2.5 mL PBS, per 96 well plate, or 50 μL (3.9 μg/μL) anti-FLAG antibody plus 5 mL PBS per 384 well plate. The plates were centrifuged at 1000 rpm for 10 seconds and shaken with a plate shaker for 10 seconds.
Anti-FLAG antibody was discarded, and the wells were washed using multidrop, low speed, two times with 300 μL/well of wash buffer for a 96 well plate or three times with 70 μL/well of wash buffer for a 384 well plate. 50 μL/well of block buffer for a 96 well plate, or 25 μL/well of block buffer for a 384 well plate, was added and the plates were incubated for two hours at room temperature. The Block buffer was then discarded and the wells washed two times using multidrop, low speed, with 300 μL/well of wash buffer for a 96 well plate, or three times with 70 μL/well of wash buffer for a 384 well plate.
25 μL of cell lysate was transferred into a 96 well MSD plate, or 12.5 μL of cell lysate into 384 well MSD plate, and the plates were incubated for one hour at room temperature.
Note: The cell lysate should be thawed one hour prior to this step, the plate centrifuged at 1000 rpm for one minute, shaken for 30 seconds, and then unsealed for lysate transfer. […]

HLM Avg [1]	IC50 (LRRK2 G2019S enzyme)	IC50 [2]	SMILES
11 mL/min/kg	0.92 nM	5.12 nM	CCNc1nc(Nc2cn([C@@H]3C[C@]3(C)C(N)=O)nc2C2CC2)ncc1C(F)(F)F (single isomer, unassigned) [Example 5, (1,2-cis)-2-(3-cyclopropyl-4-((4-(ethylamino)-5-(trifluoromethyl)pyrimidin-2-yl)amino)-1H-pyrazol-1-yl)-1-methylcyclopropanecarboxamide]
–	1.23 nM	5.79 nM	Cc1nn(C2C[C@]2(C)C(N)=O)cc1Nc1ncc(C(F)(F)F)c(NC2CC2)n1 (single isomer, unassigned) [Example 6, (1,2-cis)-2-(4-((4-(cyclopropylamino)-5-(trifluoromethyl)pyrimidin-2-yl)amino)-3-methyl-1H-pyrazol-1-yl)-1-methylcyclopropanecarboxamide]
–	1.11 nM	4.94 nM	CCNc1nc(Nc2cn([C@@H]3C[C@@H]3C(N)=O)nc2C2CC2)ncc1C(F)(F)F (single isomer, unassigned) [Example 8, (1,2-cis)-2-(3-cyclopropyl-4-((4-(ethylamino)-5-(trifluoromethyl)pyrimidin-2-yl)amino)-1H-pyrazol-1-yl)cyclopropanecarboxamide]

Further lines, the molecule ahead of its results:

SMILES	HLM Avg [1]	IC50 (LRRK2 G2019S enzyme)	IC50 [2]
Cc1nn(C2C[C@@]2(C)C(N)=O)cc1Nc1ncc(C(F)(F)F)c(NC2(C)CC2)n1 (single isomer, unassigned) [Example 1, (1,2-cis)-1-methyl-2-(3-methyl-4-((4-((1-methylcyclopropyl)amino)-5-(trifluoromethyl)pyrimidin-2-yl)amino)-1H-pyrazol-1-yl)cyclopropanecarboxamide]	6.4 mL/min/kg	1.03 nM	1.79 nM
CNc1nc(Nc2cn([C@@H]3C[C@@H]3C(N)=O)nc2C2CC2)ncc1C(F)(F)F (single isomer, unassigned) [Example 2, (1,2-cis)-2-(3-cyclopropyl-4-((4-(methylamino)-5-(trifluoromethyl)pyrimidin-2-yl)amino)-1H-pyrazol-1-yl)cyclopropanecarboxamide]	–	2.8 nM	3.06 nM
CCNc1nc(Nc2cn(C3C[C@@]3(C)C(N)=O)nc2C)ncc1Br (single isomer, unassigned) [Example 3, (1,2-cis)-2-(4-((5-bromo-4-(ethylamino)pyrimidin-2-yl)amino)-3-methyl-1H-pyrazol-1-yl)-1-methylcyclopropanecarboxamide]	–	2.28 nM	10.5 nM
Cc1nn(C2C[C@]2(C)C(N)=O)cc1Nc1ncc(C(F)(F)F)c(NC2(C)CC2)n1 (single isomer, unassigned) [Example 4, (1,2-cis)-1-methyl-2-(3-methyl-4-((4-((1-methylcyclopropyl)amino)-5-(trifluoromethyl)pyrimidin-2-yl)amino)-1H-pyrazol-1-yl)cyclopropanecarboxamide]	8.9 mL/min/kg	1.49 nM	3 nM
